Source: ChEMBL document CHEMBL3885861, “Open TG-GATES”

Organism: Rattus norvegicus
Assay: Open TG-GATES - Regimen: Single
Assay type: toxicity, organism-based, Sprague-Dawley
Parameters: regimen Single, gender Male, age 6 weeks
Settings: in vivo, po, 150 mg/kg, route gavage, dose level High; for APTT / Bas / Eos / Fbg / Hb / Ht / Lym / MCH / MCHC / MCV / Mono / Neu / PT / Plat / RBC / Ret / WBC: tissue Blood; for KIDNEY_L / KIDNEY_R / KIDNEY_TOTAL: tissue Kidney; for LIVER: tissue Liver; for A/G / ALP / ALT / AST / BUN / CRE / Ca / Cl / DBIL / GLC / IP / K / LDH / Na / PL / RALB / TBIL / TC / TG / TP / gamma-GTP: tissue Plasma

In the case of `S=C=Nc1cccc2ccccc12` [1-NAPHTHYLISOTHIOCYANATE], the TERMINAL_BW (3 h) is reported as 222.9 g, the APTT (3 h) is reported as 17.4 s and the Bas (3 h) is reported as 0.2%. The Eos (3 h) was 0.8%, the Fbg (3 h) was 243 mg/dL and the Hb (3 h) was 13.9 g/dL. For the same compound, the Ht (3 h) was 38.6%, the Lym (3 h) was 77.8% and the MCH (3 h) was 22.3 pg. It also gave an MCHC (3 h) of 36%, an MCV (3 h) of 61.8 fL and a Mono (3 h) of 2.4%. It also gave a Neu (3 h) of 18.2%, a PT (3 h) of 11.8 s and a Plat (3 h) of 124.6 x10_4/uL. The RBC (3 h) was 626.2 x10_4/ul, the Ret (3 h) was 8.3% and the WBC (3 h) was 70.9 x10_2/uL. It also gave a KIDNEY_L (3 h) of 0.9 g, a KIDNEY_R (3 h) of 0.9 g and a KIDNEY_TOTAL (3 h) of 1.9 g. It also gave an LIVER (3 h) of 9.6 g, an A/G (3 h) of 1.6 and an ALP (3 h) of 1056 IU/L. For the same compound, the ALT (3 h) was 43 IU/L, the AST (3 h) was 69.6 IU/L and the BUN (3 h) was 9.2 mg/dL. It also gave a CRE (3 h) of 0.4 mg/dL, a Ca (3 h) of 10.9 mg/dL and a Cl (3 h) of 103 meq/L. It also gave a DBIL (3 h) of 0.2 mg/dL, a GLC (3 h) of 314.6 mg/dL and an IP (3 h) of 11.1 mg/dL. For the same compound, the K (3 h) was 3.9 meq/L, the LDH (3 h) was 205.6 IU/L and the Na (3 h) was 141.4 meq/L. The PL (3 h) was 142.2 mg/dL, the RALB (3 h) was 3.5 g/dL and the TBIL (3 h) was 0.2 mg/dL. For the same compound, the TC (3 h) was 78.6 mg/dL, the TG (3 h) was 77.6 mg/dL and the TP (3 h) was 5.7 g/dL. It also gave a gamma-GTP (3 h) of 1 IU/L, a TERMINAL_BW (6 h) of 220.5 g and an APTT (6 h) of 19.3 s. The Bas (6 h) was 0.4%, the Eos (6 h) was 0.6% and the Fbg (6 h) was 247.2 mg/dL. It also gave a Hb (6 h) of 14.3 g/dL, a Ht (6 h) of 40.2% and a Lym (6 h) of 80.6%. For the same compound, the MCH (6 h) was 21.5 pg, the MCHC (6 h) was 35.6% and the MCV (6 h) was 60.3 fL. For the same compound, the Mono (6 h) was 2.4%, the Neu (6 h) was 15.4% and the PT (6 h) was 12.1 s. The Plat (6 h) was 127.2 x10_4/uL, the RBC (6 h) was 668 x10_4/ul and the Ret (6 h) was 7.4%. It also gave a WBC (6 h) of 75.2 x10_2/uL, a KIDNEY_L (6 h) of 0.9 g and a KIDNEY_R (6 h) of 0.9 g. It also gave a KIDNEY_TOTAL (6 h) of 1.9 g, an LIVER (6 h) of 9 g and an A/G (6 h) of 1.5. The ALP (6 h) was 846.6 IU/L, the ALT (6 h) was 40.4 IU/L and the AST (6 h) was 71.4 IU/L. For the same compound, the BUN (6 h) was 10 mg/dL, the CRE (6 h) was 0.4 mg/dL and the Ca (6 h) was 10.7 mg/dL. For the same compound, the Cl (6 h) was 101.2 meq/L, the DBIL (6 h) was 0.3 mg/dL and the GLC (6 h) was 371.2 mg/dL. It also gave an IP (6 h) of 10.4 mg/dL, a K (6 h) of 4.4 meq/L and an LDH (6 h) of 188.4 IU/L. It also gave a Na (6 h) of 141 meq/L, a PL (6 h) of 149.2 mg/dL and an RALB (6 h) of 3.6 g/dL. The TBIL (6 h) was 0.2 mg/dL, the TC (6 h) was 85 mg/dL and the TG (6 h) was 55.4 mg/dL. The TP (6 h) was 5.9 g/dL, the gamma-GTP (6 h) was 1.2 IU/L and the TERMINAL_BW (9 h) was 219.4 g. For the same compound, the APTT (9 h) was 19.1 s, the Bas (9 h) was 0.4% and the Eos (9 h) was 0.6%. For the same compound, the Fbg (9 h) was 251.8 mg/dL, the Hb (9 h) was 14.3 g/dL and the Ht (9 h) was 40.2%. It also gave a Lym (9 h) of 77.6%, an MCH (9 h) of 21.9 pg and an MCHC (9 h) of 35.7%. The MCV (9 h) was 61.4 fL, the Mono (9 h) was 3% and the Neu (9 h) was 18.4%. It also gave a PT (9 h) of 12.1 s, a Plat (9 h) of 126.7 x10_4/uL and an RBC (9 h) of 655.2 x10_4/ul. It also gave a Ret (9 h) of 7.1%, a WBC (9 h) of 81.9 x10_2/uL and a KIDNEY_L (9 h) of 1 g. It also gave a KIDNEY_R (9 h) of 0.9 g, a KIDNEY_TOTAL (9 h) of 1.9 g and an LIVER (9 h) of 8.7 g. The A/G (9 h) was 1.5, the ALP (9 h) was 968.6 IU/L and the ALT (9 h) was 40 IU/L. For the same compound, the AST (9 h) was 63.8 IU/L, the BUN (9 h) was 10.2 mg/dL and the CRE (9 h) was 0.4 mg/dL. It also gave a Ca (9 h) of 10.8 mg/dL, a Cl (9 h) of 101.8 meq/L and a DBIL (9 h) of 0.3 mg/dL. The GLC (9 h) was 352.4 mg/dL, the IP (9 h) was 10.4 mg/dL and the K (9 h) was 4.5 meq/L. It also gave an LDH (9 h) of 186.8 IU/L, a Na (9 h) of 140.8 meq/L and a PL (9 h) of 151.4 mg/dL. It also gave an RALB (9 h) of 3.6 g/dL, a TBIL (9 h) of 0.2 mg/dL and a TC (9 h) of 83.4 mg/dL. The TG (9 h) was 35.6 mg/dL, the TP (9 h) was 5.9 g/dL and the gamma-GTP (9 h) was 1 IU/L. It also gave a TERMINAL_BW (24 h) of 214.2 g, an APTT (24 h) of 21.2 s and a Bas (24 h) of 0.6%. For the same compound, the Eos (24 h) was 0.2%, the Fbg (24 h) was 392.4 mg/dL and the Hb (24 h) was 14.7 g/dL. The Ht (24 h) was 38.5%, the Lym (24 h) was 43% and the MCH (24 h) was 21.6 pg. It also gave an MCHC (24 h) of 38.2%, an MCV (24 h) of 56.4 fL and a Mono (24 h) of 5.6%. It also gave a Neu (24 h) of 49.6%, a PT (24 h) of 12.8 s and a Plat (24 h) of 145.8 x10_4/uL. The RBC (24 h) was 682.8 x10_4/ul, the Ret (24 h) was 6% and the WBC (24 h) was 79 x10_2/uL. The KIDNEY_L (24 h) was 0.9 g, the KIDNEY_R (24 h) was 0.9 g and the KIDNEY_TOTAL (24 h) was 1.9 g. For the same compound, the LIVER (24 h) was 8.6 g, the A/G (24 h) was 1.3 and the ALP (24 h) was 1505.2 IU/L. The ALT (24 h) was 131.6 IU/L, the AST (24 h) was 349.2 IU/L and the BUN (24 h) was 11.2 mg/dL. The CRE (24 h) was 0.5 mg/dL, the Ca (24 h) was 10.4 mg/dL and the Cl (24 h) was 96.8 meq/L. It also gave a DBIL (24 h) of 1.5 mg/dL, a GLC (24 h) of 190.8 mg/dL and an IP (24 h) of 9.2 mg/dL. The K (24 h) was 3.8 meq/L, the LDH (24 h) was 601.8 IU/L and the Na (24 h) was 142.2 meq/L. It also gave a PL (24 h) of 268 mg/dL, an RALB (24 h) of 3.3 g/dL and a TBIL (24 h) of 1.7 mg/dL. It also gave a TC (24 h) of 129.6 mg/dL, a TG (24 h) of 64.2 mg/dL and a TP (24 h) of 5.8 g/dL. It also gave a gamma-GTP (24 h) of 7.4 IU/L.
